Experimental data published in ChEMBL document CHEMBL4118041, “Targeted Dereplication of Microbial Natural Products by High-Resolution MS and Predicted LC Retention Time” (2017).

Tested on: A2058
Test: Cytotoxicity against human A2058 cells assessed as survival at 250 uM relative to control
Format: functional
Conditions: read-out: Survival

With CC1=C(NC(=O)CC(C)C)C(=O)N(CCCC(=O)O)C1=O the viability at 250 µM was 100%.
